# Entries after “also recorded” stand apart in the source; their conditions may differ.
# Key:
# oxidized PTP1B = biological target: T1, oxidized PTP1B (Homo sapiens, UniProt P18031); test: Adduct formation with oxidized PTP1B, mass spectroscopy analysis; assay type: binding; conditions: adduct seen by mass spectroscopy analysis;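 further: detection of covalent adducts formed between each compound and oxidized PTP1B, assessed by mass spectroscopy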
# T1 sequence (P18031 1-435): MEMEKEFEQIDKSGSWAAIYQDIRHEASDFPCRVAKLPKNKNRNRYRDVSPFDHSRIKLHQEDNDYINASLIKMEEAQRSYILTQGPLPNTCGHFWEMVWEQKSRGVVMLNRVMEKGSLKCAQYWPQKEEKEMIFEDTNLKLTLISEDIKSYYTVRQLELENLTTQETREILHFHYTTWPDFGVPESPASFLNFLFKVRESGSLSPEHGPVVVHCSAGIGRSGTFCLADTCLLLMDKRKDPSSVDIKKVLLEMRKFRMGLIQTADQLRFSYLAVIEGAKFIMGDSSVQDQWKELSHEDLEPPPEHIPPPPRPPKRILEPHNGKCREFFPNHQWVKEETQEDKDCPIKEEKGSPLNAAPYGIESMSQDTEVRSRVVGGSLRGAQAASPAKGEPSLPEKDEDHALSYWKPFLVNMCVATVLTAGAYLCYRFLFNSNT
# Description: In further embodiments of the method, a fragment of the target protein may be used instead of the entire target protein. Certain embodiments may be directed to the binding between the compound and the target protein in the samples which may form a covalent adduct between the compound and the target protein, and the quantity of covalent adducts may be measured and compared in the samples. Any suitable assay for measuring the quantity of binding, or quantity of covalent adducts, in the two samples may be used with this method. For example, binding between the compound and the target protein may be detected using mass spectroscopy, fluorescence assays, and/or chromatography techniques. The chromatography techniques may include, but are not limited to, high-performance liquid chromatography. Further, binding between the compound and target protein may be detected using a combination of assays, for example, a combination of liquid chromatography and mass spectroscopy. The method may also be carried out in live and intact cells to determine a compound's reactivity with oxidized forms of the target protein in live cells. In certain embodiments, the potency of the compound is determined based on the degree of reduction of the quantity of adducts formed in the first sample compared with the quantity of adducts formed in the control sample, in a proportion to the quantity of compound used. In further embodiments, the potency of the compound is determined by calculating a ratio of the number of adducts formed in the first sample compared to the number of adducts formed in the control sample. A ratio of one compound can be compared directly to a ratio for another compound.
# The degree of potency of the compound may be based on the degree of reduction of the quantity of adducts formed in a first sample compared with the quantity of adducts formed in the control sample in proportion to the quantity of compound used.
# GPX3 = test: In vitro probe labeling of oxidized recombinant protein, click chemistry and Western blot; assay type: binding; conditions: H2O2 1.5 eq, probe 1 hour
# Description: (§1) Cell labeling western blot assays were performed using WT PJ3H-PTP1B purified from E. coli that was cloned into a mammalian expression plasmid. Recombinant PTP1B was expressed and purified from BL21AI cells. Recombinant proteins were labeled with respective equivalences of hydrogen peroxide (PTP1B, 10 eq; Gpx3 & GAPDH, 1.5 eq) in the presence of the indicated concentrations of sulfenic acid probes for 1 hour at room temperature with constant rocking Excess probe was removed by size-exclusion chromatography. Probe modified proteins were functionalized with a biotin reporter tag through the bioorthogonal Huisgen [3+2] Cycloaddition (“click chemistry”) then analyzed by Western blot.
# GAPDH = GAPDH (Homo sapiens, UniProt P04406); test: as above; assay type: binding; conditions: H2O2 1.5 eq, probe 1 hour
# Description: as §1
# PTP1B = biological target: T2, PTP1B (Homo sapiens, UniProt P18031); test: PTP assay, 4-MUP fluorescence; assay type: biochemical; conditions: FIG. 20 fluorescence assay, percent activity
# T2 sequence (P18031 1-435): T1 sequence (P18031 1-435)
# Description: as §1
# The PTP assay included PTP that was prepared up to 100 nM in 32 mM HEPES, pH 7.2, 5 mM NaCl, 2.5 mM EDTA, 0.83% glycerol, 0.02% Triton X-100, and 0.002% Brij-35. The protein was dispensed to a black ckear-bottomed 96-well microplate followed by the addition of redox-based probes or DMSO and allowed to incubate for 15 minutes at 25° C. The assay was initiated with the addition of 4-methylumbelliferyl phosphate (4-MUP), and the formation of fluorescent product was measured with an excitation wavelength of 358 nm and emission wavelength of 449 nm.
# [1] = Plasma stability in mice (20 mg/kg IP); assay type: in vivo; conditions: mouse, intraperitoneal
# Description: Plasma stability of drug candidates may be essential for maintaining acceptable drug concentration and half-life in order to achieve desirable pharmacological effects. Compounds 1a to 5a were evaluated for plasma stability in mice with PD168393 as the reference. […] At a time point of 24 hours, Compounds 1a-5a and PD168393 were almost completely degraded.
# in vitro = conditions: human, microsomes
# [2] = Microsome stability, mouse liver microsomes; assay type: in vitro ADME; conditions: read-out: Microsome Stability Mouse t1/2
# A431 and HeLa cells = conditions: compared to DAz-2, identical conditions; cited from earlier work
# [3] = Microsome stability, human liver microsomes
# [4] = Dipeptide sulfenic acid model, reaction rate
# GAPDH, sequence (P04406 whole entry, species assumed): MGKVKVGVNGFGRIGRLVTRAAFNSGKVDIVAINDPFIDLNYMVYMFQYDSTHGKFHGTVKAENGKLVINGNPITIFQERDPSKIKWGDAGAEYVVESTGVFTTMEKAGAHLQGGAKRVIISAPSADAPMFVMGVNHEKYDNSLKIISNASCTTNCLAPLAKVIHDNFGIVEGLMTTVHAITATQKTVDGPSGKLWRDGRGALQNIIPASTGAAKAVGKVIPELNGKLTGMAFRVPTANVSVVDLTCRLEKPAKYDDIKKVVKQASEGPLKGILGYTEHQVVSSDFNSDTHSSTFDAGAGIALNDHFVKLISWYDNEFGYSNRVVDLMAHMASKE
compound,measurement,setting,value
O=C1CC(=O)C(c2ccccc2)C1 (stereo not drawn),REACTIVITY WITH OXIDIZED PTP1B,oxidized PTP1B,No adduct
O=C1CC(=O)N(c2ccccc2)C1,REACTIVITY WITH OXIDIZED PTP1B,oxidized PTP1B,Adduct
COc1ccc(-c2ccccc2)cc1N1CC(=O)CC1=O,REACTIVITY WITH OXIDIZED PTP1B,oxidized PTP1B,Adduct
O=C1CC(=O)N(c2cc(-c3ccccc3)ccc2O)C1,REACTIVITY WITH OXIDIZED PTP1B,oxidized PTP1B,Adduct
O=C1CC(=O)C(Cc2ccccc2)C1 (stereo not drawn),REACTIVITY WITH OXIDIZED PTP1B,oxidized PTP1B,No adduct
O=C1CC(=O)N(Cc2ccccc2)C1,REACTIVITY WITH OXIDIZED PTP1B,oxidized PTP1B,Adduct
COc1ccc(-c2ccccc2)cc1CN1CC(=O)CC1=O,REACTIVITY WITH OXIDIZED PTP1B,oxidized PTP1B,Adduct
O=C1CC(=O)N(Cc2cc(-c3ccccc3)ccc2O)C1,REACTIVITY WITH OXIDIZED PTP1B,oxidized PTP1B,Adduct
O=C1CC(c2ccccc2)S(=O)(=O)C1 (stereo not drawn),REACTIVITY WITH OXIDIZED PTP1B,oxidized PTP1B,No adduct
O=C1CN(c2ccccc2)S(=O)(=O)C1,REACTIVITY WITH OXIDIZED PTP1B,oxidized PTP1B,No adduct
O=C1CC(Cc2ccccc2)S(=O)(=O)C1 (stereo not drawn),REACTIVITY WITH OXIDIZED PTP1B,oxidized PTP1B,No adduct
O=C1CN(Cc2ccccc2)S(=O)(=O)C1,REACTIVITY WITH OXIDIZED PTP1B,oxidized PTP1B,No adduct
O=C1CC(=O)/C(=C\c2ccccc2)C1,REACTIVITY WITH OXIDIZED PTP1B,oxidized PTP1B,No adduct
O=C1C/C(=C/c2ccccc2)S(=O)(=O)C1,REACTIVITY WITH OXIDIZED PTP1B,oxidized PTP1B,No adduct
COc1ccc(-c2ccccc2)cc1N1CC(=O)CS1(=O)=O,REACTIVITY WITH OXIDIZED PTP1B,oxidized PTP1B,No adduct
O=C1CC(=O)c2ccccc21,REACTIVITY WITH OXIDIZED PTP1B,oxidized PTP1B,Adduct
O=C1CS(=O)(=O)c2ccccc21,REACTIVITY WITH OXIDIZED PTP1B,oxidized PTP1B,Adduct
O=C1CS(=O)(=O)Cc2ccccc21,REACTIVITY WITH OXIDIZED PTP1B,oxidized PTP1B,Adduct
CN1c2ccccc2C(=O)CS1(=O)=O,REACTIVITY WITH OXIDIZED PTP1B,oxidized PTP1B,Adduct
O=C1CS(=O)(=O)N(Cc2ccccc2)c2ccccc21,REACTIVITY WITH OXIDIZED PTP1B,oxidized PTP1B,No Adduct
O=C1CS(=O)(=O)c2ccccc2N1,REACTIVITY WITH OXIDIZED PTP1B,oxidized PTP1B,No Adduct
CN1C(=O)CS(=O)(=O)c2ccccc21,REACTIVITY WITH OXIDIZED PTP1B,oxidized PTP1B,No Adduct
O=C1CC(=O)c2ccccc2N1,REACTIVITY WITH OXIDIZED PTP1B,oxidized PTP1B,No Adduct
CN1C(=O)CC(=O)c2ccccc21,REACTIVITY WITH OXIDIZED PTP1B,oxidized PTP1B,No Adduct
O=C1CS(=O)(=O)Nc2ccccc21,REACTIVITY WITH OXIDIZED PTP1B,oxidized PTP1B,No Adduct
O=C1CCN(c2ccccc2)C(=O)C1,REACTIVITY WITH OXIDIZED PTP1B,oxidized PTP1B,Adduct
O=C1CCN(Cc2ccccc2)C(=O)C1,REACTIVITY WITH OXIDIZED PTP1B,oxidized PTP1B,Adduct
C#CCCCNC(=O)C1CC(=O)CC(=O)C1 [Compound 1],preferential detection of control protein GPX3,GPX3,no preferential detection
same,preferential detection of control protein GAPDH,GAPDH,no preferential detection
C#CCCCNC(=O)c1ccc(-c2ccc(NC(=O)C3CC(=O)CC(=O)C3)cc2)cc1 [Compound 3],IC50,PTP1B,~250 µM
CC(=O)CC(=O)Nc1ccc2ncnc(Nc3cccc(Br)c3)c2c1 [Compound 3a],concentration at 1 h,[1],29100 nM
same,concentration at 4 h,[1],1100 nM
same,concentration at 8 h,[1],100 nM
same,concentration at 24 h,[1],< 25 nM
same,half-life,in vitro,17 min
same,microsomal CLint,in vitro,39.7 µL/min/mg
same,half-life,[2],4 min
C#CCCCC1CCC(=O)CC1=O (stereo not drawn) [DYn-2],total signal and signal ratio of cell labeling,A431 and HeLa cells,greater total signal and signal ratio compared to DAz-2
"C=CC(=O)Nc1ccc2ncnc(Nc3cccc(Br)c3)c2c1 [PD168393, reference compound]",concentration at 1 h,[1],2000 nM
same,concentration at 4 h,[1],40 nM
same,concentration at 8 h,[1],50 nM
same,concentration at 24 h,[1],< 5 nM
same,half-life,[3],10 min
same,microsomal CLint,[3],72.4 µL/min/mg
same,half-life,[2],3 min
"CC1(C)CC(=O)CC(=O)C1 [dimedone, reference compound]",rate constant for reaction in the dipeptide model (pseudo first-order),[4],1 min⁻¹
same,REACTIVITY WITH OXIDIZED PTP1B,oxidized PTP1B,not reactive enough to trap the sulfenic acid in PTP1B as an observable adduct; also recorded: no adduct
CC1(C)CC(=O)CC(=O)C1 [drawing 1],REACTIVITY WITH OXIDIZED PTP1B,oxidized PTP1B,No adduct
